From patent US5530126A, “Process for the preparation of substituted 6-(pyrazol-3yl)-1,4-benzoxazin-3-ones” (Monsanto Company, priority 1994, dated 1996)

Experiments:
Format in all cases: in vivo
[1] = test system: Seedling johnsongrass; test: Post-emergence herbicide test; details: Sorghum halepense, read-out: % plant inhibition (Sejg); for inhibition at 1120 g/ha: 1.12 kg/ha; for inhibition at 11210 g/ha: 11.21 kg/ha
Summary of the method: (§1)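 Pot-grown plants two to three weeks old sprayed at 170.3 kPa with test compound in ~0.4% emulsifier, 1870 L/Ha spray volume. Percent inhibition versus control scored about 11 days after spraying, sometimes again at about 25 days.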

[2] = test system: Morningglory; test: Post-emergence herbicide test; details: Ipomoea, read-out: % plant inhibition (Mogl); for inhibition at 1120 g/ha: 1.12 kg/ha; for inhibition at 11210 g/ha: 11.21 kg/ha
Summary of the method: as §1

[3] = test system: Barnyardgrass; test: Post-emergence herbicide test; details: Echinochloa crus-galli, read-out: % plant inhibition (Bygr); for inhibition at 1120 g/ha: 1.12 kg/ha; for inhibition at 11210 g/ha: 11.21 kg/ha
Summary of the method: as §1

[4] = test system: Velvetleaf; test: Post-emergence herbicide test; details: Abutilon theophrasti, read-out: % plant inhibition (Vele); for inhibition at 1120 g/ha: 1.12 kg/ha; for inhibition at 11210 g/ha: 11.21 kg/ha
Summary of the method: as §1

[5] = test system: Downy Brome; test: Post-emergence herbicide test; details: Bromus tectorum, read-out: % plant inhibition (Dobr); for inhibition at 1120 g/ha: 1.12 kg/ha; for inhibition at 11210 g/ha: 11.21 kg/ha
Summary of the method: as §1

[6] = test system: Annual bluegrass; test: Post-emergence herbicide test; details: read-out: % plant inhibition (Anbg); for inhibition at 1120 g/ha: 1.12 kg/ha; for inhibition at 11210 g/ha: 11.21 kg/ha
Summary of the method: as §1

[7] = test system: Yellow nutsedge; test: Post-emergence herbicide test; details: Cyperus, read-out: % plant inhibition (Yens); for inhibition at 1120 g/ha: 1.12 kg/ha; for inhibition at 11210 g/ha: 11.21 kg/ha
Summary of the method: as §1

[8] = test system: Indian Mustard; test: Post-emergence herbicide test; details: Brassica juncea, read-out: % plant inhibition (Inmu); for inhibition at 1120 g/ha: 1.12 kg/ha; for inhibition at 11210 g/ha: 11.21 kg/ha
Summary of the method: as §1

[9] = test system: Cocklebur; test: Post-emergence herbicide test; details: Xanthium strumarium, read-out: % plant inhibition (Cobu); for inhibition at 1120 g/ha: 1.12 kg/ha; for inhibition at 11210 g/ha: 11.21 kg/ha
Summary of the method: as §1

[10] = test system: Wild buckwheat; test: Post-emergence herbicide test; details: Fallopia convolvulus, read-out: % plant inhibition (Wibw); for inhibition at 1120 g/ha: 1.12 kg/ha; for inhibition at 11210 g/ha: 11.21 kg/ha
Summary of the method: as §1

[11] = test system: Seedling johnsongrass; test: Pre-emergence herbicide test; details: Sorghum halepense, read-out: % plant inhibition (Sejg); for inhibition at 1120 g/ha: 1.12 kg/ha; for inhibition at 11210 g/ha: 11.21 kg/ha
Summary of the method: (§2)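 Pre-emergence soil application: compound in acetone or water carrier sprayed onto seeded topsoil surface, overlaid with untreated soil. Pans kept on greenhouse bench, watered from below. Read-out % inhibition, ~11 days post-treatment.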

[12] = test system: Morningglory; test: Pre-emergence herbicide test; details: Ipomoea, read-out: % plant inhibition (Mogl); for inhibition at 1120 g/ha: 1.12 kg/ha; for inhibition at 11210 g/ha: 11.21 kg/ha
Summary of the method: as §2

[13] = test system: Barnyardgrass; test: Pre-emergence herbicide test; details: Echinochloa crus-galli, read-out: % plant inhibition (Bygr); for inhibition at 1120 g/ha: 1.12 kg/ha; for inhibition at 11210 g/ha: 11.21 kg/ha
Summary of the method: as §2

[14] = test system: Velvetleaf; test: Pre-emergence herbicide test; details: Abutilon theophrasti, read-out: % plant inhibition (Vele); for inhibition at 1120 g/ha: 1.12 kg/ha; for inhibition at 11210 g/ha: 11.21 kg/ha
Summary of the method: as §2

[15] = test system: Downy Brome; test: Pre-emergence herbicide test; details: Bromus tectorum, read-out: % plant inhibition (Dobr); for inhibition at 1120 g/ha: 1.12 kg/ha; for inhibition at 11210 g/ha: 11.21 kg/ha
Summary of the method: as §2

[16] = test system: Annual bluegrass; test: Pre-emergence herbicide test; details: read-out: % plant inhibition (Anbg); for inhibition at 1120 g/ha: 1.12 kg/ha; for inhibition at 11210 g/ha: 11.21 kg/ha
Summary of the method: as §2

[17] = test system: Yellow nutsedge; test: Pre-emergence herbicide test; details: Cyperus, read-out: % plant inhibition (Yens); for inhibition at 1120 g/ha: 1.12 kg/ha; for inhibition at 11210 g/ha: 11.21 kg/ha
Summary of the method: as §2

[18] = test system: Indian Mustard; test: Pre-emergence herbicide test; details: Brassica juncea, read-out: % plant inhibition (Inmu); for inhibition at 1120 g/ha: 1.12 kg/ha; for inhibition at 11210 g/ha: 11.21 kg/ha
Summary of the method: as §2

[19] = test system: Cocklebur; test: Pre-emergence herbicide test; details: Xanthium strumarium, read-out: % plant inhibition (Cobu); for inhibition at 1120 g/ha: 1.12 kg/ha; for inhibition at 11210 g/ha: 11.21 kg/ha
Summary of the method: as §2

[20] = test system: Wild buckwheat; test: Pre-emergence herbicide test; details: Fallopia convolvulus, read-out: % plant inhibition (Wibw); for inhibition at 1120 g/ha: 1.12 kg/ha; for inhibition at 11210 g/ha: 11.21 kg/ha
Summary of the method: as §2

| SMILES | inhibition at 1120 g/ha [1] [%] | inhibition at 1120 g/ha [2] [%] | inhibition at 1120 g/ha [3] [%] | inhibition at 1120 g/ha [4] [%] | inhibition at 1120 g/ha [5] [%] | inhibition at 1120 g/ha [6] [%] | inhibition at 1120 g/ha [7] [%] | inhibition at 1120 g/ha [8] [%] | inhibition at 1120 g/ha [9] [%] | inhibition at 1120 g/ha [10] [%] | inhibition at 1120 g/ha [11] [%] | inhibition at 1120 g/ha [12] [%] | inhibition at 1120 g/ha [13] [%] | inhibition at 1120 g/ha [14] [%] | inhibition at 1120 g/ha [15] [%] | inhibition at 1120 g/ha [16] [%] | inhibition at 1120 g/ha [17] [%] | inhibition at 1120 g/ha [18] [%] | inhibition at 1120 g/ha [19] [%] | inhibition at 1120 g/ha [20] [%] | other results |
| --- | --- | --- | --- | --- | --- | --- | --- | --- | --- | --- | --- | --- | --- | --- | --- | --- | --- | --- | --- | --- | --- |
| Cn1nc(-c2cc(CO)c(Cl)cc2F)c(Cl)c1C(F)(F)F [Compound 122, 2-chloro-5-[4-chloro-1-methyl-5-(trifluoromethyl)-1H-pyrazol-3-yl]-4-fluorobenzenemethanol] | 70 | 80 | 70 | 100 | 20 | 20 | 20 | 50 | 60 | 90 | 40 | 80 | 80 | 100 | 20 | 20 | 0 | 100 | 40 | 70 |  |
| CC(=O)OCc1cc(-c2nn(C)c(C(F)(F)F)c2Cl)c(F)cc1Cl [Compound 121] |  |  |  |  |  |  |  |  |  |  |  |  |  |  |  |  |  |  |  |  | inhibition at 11210 g/ha [1]: 90%; inhibition at 11210 g/ha [2]: 100%; inhibition at 11210 g/ha [3]: 100%; inhibition at 11210 g/ha [4]: 100%; inhibition at 11210 g/ha [5]: 90%; inhibition at 11210 g/ha [6]: 40%; inhibition at 11210 g/ha [7]: 20%; inhibition at 11210 g/ha [8]: 90%; inhibition at 11210 g/ha [9]: 90%; inhibition at 11210 g/ha [10]: 100%; inhibition at 11210 g/ha [11]: 80%; inhibition at 11210 g/ha [12]: 100%; inhibition at 11210 g/ha [13]: 100%; inhibition at 11210 g/ha [14]: 100%; inhibition at 11210 g/ha [15]: 70%; inhibition at 11210 g/ha [16]: 100%; inhibition at 11210 g/ha [17]: 70%; inhibition at 11210 g/ha [18]: 100%; inhibition at 11210 g/ha [19]: 60%; inhibition at 11210 g/ha [20]: 100% |
| Cn1nc(-c2cc(C3SCCS3)c(Cl)cc2F)c(Cl)c1C(F)(F)F [Compound 101] | 70 | 100 | 100 | 100 | 100 | 90 | 30 | 100 | 100 | 100 | 80 | 80 | 40 | 100 | 80 | 70 | 0 | 100 | 30 | 90 |  |
| C#CCOc1cc(-c2nn(C)c(C(F)(F)Cl)c2Cl)c(F)cc1Cl [Compound 303] |  |  |  |  |  |  |  |  |  |  |  |  |  |  |  |  |  |  |  |  | inhibition at 11210 g/ha [1]: 100%; inhibition at 11210 g/ha [2]: 100%; inhibition at 11210 g/ha [3]: 100%; inhibition at 11210 g/ha [4]: 100%; inhibition at 11210 g/ha [5]: 100%; inhibition at 11210 g/ha [6]: 100%; inhibition at 11210 g/ha [7]: 70%; inhibition at 11210 g/ha [8]: 100%; inhibition at 11210 g/ha [9]: 100%; inhibition at 11210 g/ha [10]: 100%; inhibition at 11210 g/ha [11]: 100%; inhibition at 11210 g/ha [12]: 100%; inhibition at 11210 g/ha [13]: 100%; inhibition at 11210 g/ha [14]: 100%; inhibition at 11210 g/ha [15]: 100%; inhibition at 11210 g/ha [16]: 100%; inhibition at 11210 g/ha [17]: 0%; inhibition at 11210 g/ha [18]: 100%; inhibition at 11210 g/ha [19]: 100%; inhibition at 11210 g/ha [20]: 100% |
| Cc1cc(-c2nn(C)c(C(F)F)c2Cl)c(F)cc1Cl [Compound 126] | 30 | 60 | 50 | 90 | 0 | 40 | 10 | 40 | 30 | 80 | 100 | 100 | 100 | 100 | 100 | 100 | 0 | 100 | 50 | 100 |  |
| CCOC(=O)C(C)Oc1cc(-c2nn(C)c(C(F)(F)F)c2Cl)c(F)cc1Br (centres unmarked) [Compound 97] | 60 | 90 | 100 | 100 | 90 | 70 | 50 | 100 | 100 | 100 | 50 | 40 | 50 | 100 | 80 | 80 | 20 | 90 | 90 | 100 |  |
| COC(=O)C=Cc1cc(-c2nn(C)c(C(F)(F)F)c2Cl)c(F)cc1Cl [Compound 128, 3-(2-chloro-5-(4-chloro-1-methyl-5-(trifluoromethyl)-1H-pyrazol-3-yl)-4-fluorophenyl)propenoic acid, methyl ester] | 100 | 100 | 50 | 100 | 100 | 30 | 20 | 90 | 100 | 100 | 30 | 80 | 0 | 100 | 0 | 0 | 0 | 70 | 70 | 100 |  |
